Assay results taken from PubChem BioAssay AID2060887 (Molecular Pharmacology Branch, DTP, NCI, 2025).

Test system: 782815-120-R-J1-PDC complex spheroid viability
Assay: Anticancer human tumor 782815-120-R-J1-PDC patient-derived colon adenocarcinoma cell line growth inhibition [RAS]
Conditions: for viability, T/C: stronger effect = lower value
Procedure, shortened: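 Multi-cell-type spheroids: tumor cells plus HUVEC endothelial cells and mesenchymal stem cells. RAS-pathway inhibitors were combined with targeted agents, each dosed in half-log steps down from clinical Cmax, or from 10 microM when Cmax was unknown.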
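Also: spheroids exposed to compounds for 7 days before reading.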
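For viability, T/C in this document: 100% = DMSO vehicle control viability.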

C[C@@H](NC(=O)c1ncnc(N)c1Cl)c1ncc(C(=O)Nc2cc(C(F)(F)F)c(Cl)cn2)s1 + C#Cc1c(F)ccc2cc(O)cc(-c3ncc4c(N5CC6CCC(C5)N6)nc(OCC56CCCN5CC(F)C6)nc4c3F)c12
IC50 (curve of first compound, second compound 0.0316 µM): > 10 µM | IC50 (curve of first compound, second compound 0.1 µM): > 10 µM | IC50 (curve of first compound, second compound 0.316 µM): > 10 µM | IC50 (curve of first compound, second compound 1 µM): > 10 µM | IC50 (curve of first compound, second compound 3.16 µM): > 10 µM | IC50 (curve of first compound, second compound 10 µM): > 10 µM | viability, T/C (second compound 0.0316 µM, first compound 0.0316 µM): 105% | viability, T/C (second compound 0.0316 µM, first compound 0.1 µM): 101% | viability, T/C (second compound 0.0316 µM, first compound 0.316 µM): 108% | viability, T/C (second compound 0.0316 µM, first compound 1 µM): 90.7% | viability, T/C (second compound 0.0316 µM, first compound 3.16 µM): 85.2% | viability, T/C (second compound 0.0316 µM, first compound 10 µM): 72.3% | viability, T/C (second compound 0.1 µM, first compound 0.0316 µM): 98.5% | viability, T/C (second compound 0.1 µM, first compound 0.1 µM): 111% | viability, T/C (second compound 0.1 µM, first compound 0.316 µM): 96.4% | viability, T/C (second compound 0.1 µM, first compound 1 µM): 99.1% | viability, T/C (second compound 0.1 µM, first compound 3.16 µM): 81.4% | viability, T/C (second compound 0.1 µM, first compound 10 µM): 71.4% | viability, T/C (second compound 0.316 µM, first compound 0.0316 µM): 104% | viability, T/C (second compound 0.316 µM, first compound 0.1 µM): 108% | viability, T/C (second compound 0.316 µM, first compound 0.316 µM): 96.7% | viability, T/C (second compound 0.316 µM, first compound 1 µM): 95.9% | viability, T/C (second compound 0.316 µM, first compound 3.16 µM): 80.4% | viability, T/C (second compound 0.316 µM, first compound 10 µM): 70.5% | viability, T/C (second compound 1 µM, first compound 0.0316 µM): 105% | viability, T/C (second compound 1 µM, first compound 0.1 µM): 114% | viability, T/C (second compound 1 µM, first compound 0.316 µM): 111% | viability, T/C (second compound 1 µM, first compound 1 µM): 82.5% | viability, T/C (second compound 1 µM, first compound 3.16 µM): 71.1% | viability, T/C (second compound 1 µM, first compound 10 µM): 61.5% | viability, T/C (second compound 3.16 µM, first compound 0.0316 µM): 99.3% | viability, T/C (second compound 3.16 µM, first compound 0.1 µM): 101% | viability, T/C (second compound 3.16 µM, first compound 0.316 µM): 91.6% | viability, T/C (second compound 3.16 µM, first compound 1 µM): 87.3% | viability, T/C (second compound 3.16 µM, first compound 3.16 µM): 76.4% | viability, T/C (second compound 3.16 µM, first compound 10 µM): 65.7% | viability, T/C (second compound 10 µM, first compound 0.0316 µM): 105% | viability, T/C (second compound 10 µM, first compound 0.1 µM): 100% | viability, T/C (second compound 10 µM, first compound 0.316 µM): 92.8% | viability, T/C (second compound 10 µM, first compound 1 µM): 86.2% | viability, T/C (second compound 10 µM, first compound 3.16 µM): 71.6% | viability, T/C (second compound 10 µM, first compound 10 µM): 57.2%

C=CC(=O)N1CCN(c2nc(OCC3CCCN3C)nc3c(F)c(-c4nc(N)cc(C)c4C(F)(F)F)c(Cl)cc23)C(C)C1 (stereo not given)
viability, T/C (compound 0.00316 µM): 99.4% [middle of 12 runs] | viability, T/C (compound 0.01 µM): 102% [middle of 12 runs] | viability, T/C (compound 0.0316 µM): 102% [middle of 12 runs] | viability, T/C (compound 0.1 µM): 99.2% [middle of 12 runs] | viability, T/C (compound 0.316 µM): 102% [middle of 12 runs] | viability, T/C (compound 1 µM): 96.7% [middle of 12 runs] | IC50 (compound alone, run of 07/15/2024): > 1 µM | IC50 (curve of compound): > 1 µM
